What was measured:
Substance-P receptor = Substance-P receptor (Homo sapiens, UniProt P25103); assay: Compound was tested for binding affinity against human NK1 receptor
Neuromedin-K receptor = target: T1, Neuromedin-K receptor (Homo sapiens, UniProt P29371); assay: Compound was tested for binding affinity against human Tachykinin receptor 3 in CHO cells; assay type: cell-based
T1 sequence (P29371 whole entry): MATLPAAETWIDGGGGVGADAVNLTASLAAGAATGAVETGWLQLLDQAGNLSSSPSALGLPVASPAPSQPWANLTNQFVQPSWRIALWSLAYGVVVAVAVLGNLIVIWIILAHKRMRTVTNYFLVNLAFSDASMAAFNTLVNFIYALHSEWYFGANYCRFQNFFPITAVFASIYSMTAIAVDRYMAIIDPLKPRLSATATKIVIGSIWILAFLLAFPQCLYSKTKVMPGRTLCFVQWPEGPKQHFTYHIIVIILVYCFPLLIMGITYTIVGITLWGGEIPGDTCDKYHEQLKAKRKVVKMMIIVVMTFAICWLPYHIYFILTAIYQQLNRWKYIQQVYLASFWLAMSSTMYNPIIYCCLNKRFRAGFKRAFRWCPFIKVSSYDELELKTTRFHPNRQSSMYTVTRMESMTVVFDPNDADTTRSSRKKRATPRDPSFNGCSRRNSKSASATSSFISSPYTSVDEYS

CHO = assay: Inhibition of senktide-evoked increases in intracellular calcium levels in CHO cells measured using the fluorescent indicator Fura 2; assay type: functional, Cricetulus griseus

Chain of Substance-P receptor (P25103 whole entry): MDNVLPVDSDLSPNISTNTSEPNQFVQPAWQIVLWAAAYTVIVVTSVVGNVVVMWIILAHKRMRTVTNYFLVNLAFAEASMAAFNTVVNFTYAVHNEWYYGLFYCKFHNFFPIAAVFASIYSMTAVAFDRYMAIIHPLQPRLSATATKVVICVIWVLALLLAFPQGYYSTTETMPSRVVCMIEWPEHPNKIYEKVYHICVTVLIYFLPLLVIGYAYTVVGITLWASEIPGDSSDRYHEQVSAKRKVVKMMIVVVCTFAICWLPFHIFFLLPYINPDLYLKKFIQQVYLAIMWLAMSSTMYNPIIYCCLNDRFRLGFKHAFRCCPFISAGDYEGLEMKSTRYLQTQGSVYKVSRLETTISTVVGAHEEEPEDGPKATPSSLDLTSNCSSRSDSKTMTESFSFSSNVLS

IC50 (Substance-P receptor) [µM] | IC50 (Neuromedin-K receptor) [µM] | SMILES | Ke (CHO) [nM]
1.4 | 1.2 | CC(NC(=O)[C@@](C)(Cc1cc2ccccc2[nH]1)NC(=O)OC(c1ccccc1)C(C)C)c1ccccc1 (stereo partly drawn) | 
 |  | CC(C)[C@H](OC(=O)N[C@](C)(Cc1ccccc1F)C(=O)NCCCCCCCNC(N)=O)c1ccccc1 | 2.2
